# Test results: US8129544B2, “1-substituted-4-nitroimidazole compound and method for preparing the same” (Otsuka Pharmaceutical Co., Ltd., priority 2002, dated 2012)
# Key:
# [1] = tested on: Mycobacterium tuberculosis H37RV; experiment: Antibiotic test by using an agar plate dilution method; format: cell-based; conditions: 336 h, Culture medium 7H11, inoculum about 10^6 CFU/ml (5 μl), cultivated at 37° C. for 14 days, read-out: Minimum inhibitory concentration
melting point,SMILES,MIC [1]
93 to 94 °C,C[C@]1(Cn2cc([N+](=O)[O-])nc2Br)CO1,–
65.5 to 67 °C,C[C@]1(Cn2cc([N+](=O)[O-])nc2Cl)CO1,–
93 to 94 °C,C[C@@]1(Cn2cc([N+](=O)[O-])nc2Br)CO1,–

SMILES,melting point,MIC [1]
"C[C@]1(CN2CCN(c3ccc(OC(F)(F)F)cc3)CC2)Cn2cc([N+](=O)[O-])nc2O1 [Reference Example 7, (S)-2-[4-(4-trifluoromethoxyphenyl)piperazin-1-ylmethyl]-2-methyl-6-nitro-2,3-dihydroimidazo[2,1-b]oxazole]",129 to 130 °C,0.024 mg/L
